Consider 1 compound from patent US20260015333A1, “COMPOUNDS AND METHODS FOR INHIBITION OF THE EVOLUTION OF […]” (priority 2022, published 2026).

Data set [1] deals with T1, Mfd (Salmonella typhimurium, UniProt Q8ZQ01). Nature of the data set: Translocase assay (in vivo luminescence reporter system). It counts as cell-based, S. typhimurium. An excerpt:
FIGS. 1A-1C depict an in vivo high throughput screen identifing lead compound ARM-1. FIG. 1A is a schematic of in vivo screen design. In the upper panel, when Mfd is present, RNAP complexes stalled at the lacI-bound operator sequence are quickly removed, resulting in little to no transcription of the lux operon and low luminescence output. In the lower panel, when Mfd is either absent or inhibited, RNAP complexes stalled at the operator are not removed and are able to proceed during temporary dissociation of LacI, resulting in relatively high levels of luminescent output. FIG. 1B depicts the structure of the compound, ARM-1. […] Relative luminescence is normalized to no compound, solvent control, and 0.5% DMSO. *p<0.05 ***p<0.001.
In order to determine if Mfd's activity and/or RNAP termination function could be inactivated through the use of a small molecule, a high-throughput in vivo screen of roughly 250,000 compounds was conducted. […] The reporter system consists of one plasmid with a lac operator (lacO) encoded directly upstream of the lux operon which expresses proteins that produce luciferase, leading to easily detectable luminescence. […] The LacI protein which binds to lacO is a barrier to transcription; RNAP is unable to readily pass the bound protein and therefore, the transcription machinery stalls. […]

Data set [2] deals with T1, Mfd. Nature of the data set: biochemical. The arrangement: species or system S. typhimurium. The method, then: FIGS. 2A-2D depict how ARM-1 affects Mfd's biochemical activity. FIG. 2A depicts how the kd of ARM-1 was determined using microscale thermophoresis. Data shown represent a minimum of three independent experiments. FIG. 2B depicts a NADH-coupled ATPase assay. ATP hydrolysis by Mfd was coupled to NADH oxidation. Phosphoenolpyruvate is converted to pyruvate by pyruvate kinase, transferring a phosphate group onto ADP, which is only present in the reaction following ATP hydrolysis by Mfd. Pyruvate is then converted to lactate by lactate dehydrogenase, oxidizing NADH to NAD^+. Absorbance at 340 nm by NADH is used to monitor the reaction. Data shown represent a minimum of 3 biological replicates. FIG. 2C depicts a transcription roadblock assay. A P32-labled 176 bp PCR fragment was incubated with E. coli RNAP along with saturating concentrations of ATP, GTP, and UTP. 100 nM S. typhimurium ST19 Mfd preincubated with indicated concentrations of ARM-1 was added and the reaction allowed to proceed for 6 minutes. DNA products were then resolved on a polyacrylamide gel and analyzed by phosphorimaging. […] Quantification of these gels is shown below each lane. […]
ATPase assays were performed as described in Kiiansita et al., 2003. […] To start reaction, varying quantities of ATP were added and absorbance at 340 nm was measured every 60 seconds for 1 hour in an Epoch2 microplate spectrophotometer (BioTek). […]

A further data set concerns HeLa cells. Nature of the data set: Mammalian cell cytotoxicity (CellTox Green). It is filed as cell-based. To be noted: during the timeframe of the infection experiment. The method, then:
FIGS. 9A-9B depict the cytotoxicity of ARM-1 against indicated mammalian cell lines. FIG. 9A depicts toxicity reported from original Calibr screen data against HEK293T and HepG2 cell lines. FIG. 9B depicts toxicity determined using Promega CellTox reagents following 8 hours of exposure of HeLa, Caco-2, and HEK293 cells to varying concentrations of ARM-1. Relative fluorescent units (RFUs) reported relative to solvent and no substrate controls.
Cytotoxicity of ARM-1 against HeLa, Caco-2, and HEK293 cells was determined using CellTox Green Cytotoxicity Assay (Promega) according to manufacturer instructions. ARM-1 was diluted in DMSO and applied to the culture such that final concentrations of DMSO were less than 0.05%. Reported toxicity is relative to a DMSO only control. Cells were incubated with ARM-1 for 24 hours prior to addition of reporter dye. Fluorescence was read on a BioTek Synergy Neo plate reader.

T1 sequence (Q8ZQ01 entry or part of it): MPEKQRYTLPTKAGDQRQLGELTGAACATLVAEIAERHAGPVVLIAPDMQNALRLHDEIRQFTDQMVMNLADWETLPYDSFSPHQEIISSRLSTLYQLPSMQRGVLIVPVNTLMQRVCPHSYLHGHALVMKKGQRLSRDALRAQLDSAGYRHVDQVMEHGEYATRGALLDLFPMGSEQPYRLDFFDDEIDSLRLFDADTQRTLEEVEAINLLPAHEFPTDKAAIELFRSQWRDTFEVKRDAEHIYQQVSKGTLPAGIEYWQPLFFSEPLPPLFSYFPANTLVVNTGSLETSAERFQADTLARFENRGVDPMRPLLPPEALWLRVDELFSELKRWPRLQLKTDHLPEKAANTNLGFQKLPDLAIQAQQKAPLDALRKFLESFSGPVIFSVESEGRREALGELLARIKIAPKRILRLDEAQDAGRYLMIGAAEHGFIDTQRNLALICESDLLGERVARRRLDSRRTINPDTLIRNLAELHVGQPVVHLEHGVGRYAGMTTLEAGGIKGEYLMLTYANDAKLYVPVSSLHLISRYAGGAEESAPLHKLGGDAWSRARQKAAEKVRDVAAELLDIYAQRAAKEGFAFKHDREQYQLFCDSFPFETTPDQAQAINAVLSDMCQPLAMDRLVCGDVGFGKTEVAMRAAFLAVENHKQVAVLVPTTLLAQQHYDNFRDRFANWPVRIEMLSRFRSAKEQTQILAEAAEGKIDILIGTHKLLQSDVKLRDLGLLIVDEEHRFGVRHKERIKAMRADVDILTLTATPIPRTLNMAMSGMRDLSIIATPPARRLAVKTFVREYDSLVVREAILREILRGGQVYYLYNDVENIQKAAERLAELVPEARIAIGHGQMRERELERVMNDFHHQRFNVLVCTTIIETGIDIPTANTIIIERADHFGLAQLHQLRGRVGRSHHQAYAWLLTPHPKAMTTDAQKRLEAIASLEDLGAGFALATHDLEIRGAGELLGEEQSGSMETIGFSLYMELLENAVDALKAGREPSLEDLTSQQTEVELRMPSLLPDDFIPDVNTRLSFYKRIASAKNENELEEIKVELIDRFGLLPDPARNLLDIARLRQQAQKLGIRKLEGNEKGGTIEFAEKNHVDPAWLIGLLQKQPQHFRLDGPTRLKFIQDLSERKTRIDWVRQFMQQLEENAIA

Regarding `Cc1cc(Br)ccc1-c1ccc(CNCCCN(C)C)o1` [ARM-1, N^1-((5-(4-bromo-2-methylphenyl)furan-2-yl)methyl)-N^3,N^3-dimethylpropane-1,3-diamine], at Mfd [1], the “effect on luminescence in cells lacking Mfd” value is “no effect”. Further, the “ATP hydrolysis by Mfd” value at Mfd [2] (6.25 μM to 50 μM ARM-1, ratios of 125 to 1000 ARM-1 per Mfd) was “dose dependent increase”. In addition, on Mfd [2] (50 μM ARM-1, read-out: ATPase activity enhancement), the fold induction at 50 µM was approximately 3. Moreover, the “cytotoxic effects on HeLa cells” value in the data set with HeLa cells is reported as “no cytotoxic effects”.
